From paper PMC12615753, “Glutathione as a taste modulator: molecular mechanisms of interaction with umami and sweet taste receptors” (Food Chemistry: Molecular Sciences, 2025)

Molecular target: T1, hTAS1R1/rTAS1R3(Mut1) (UniProt Q7RTX1+Q923K1, A277V/L68N/R278H/S168G/S302A)
T1 sequence (Q7RTX1 21-841): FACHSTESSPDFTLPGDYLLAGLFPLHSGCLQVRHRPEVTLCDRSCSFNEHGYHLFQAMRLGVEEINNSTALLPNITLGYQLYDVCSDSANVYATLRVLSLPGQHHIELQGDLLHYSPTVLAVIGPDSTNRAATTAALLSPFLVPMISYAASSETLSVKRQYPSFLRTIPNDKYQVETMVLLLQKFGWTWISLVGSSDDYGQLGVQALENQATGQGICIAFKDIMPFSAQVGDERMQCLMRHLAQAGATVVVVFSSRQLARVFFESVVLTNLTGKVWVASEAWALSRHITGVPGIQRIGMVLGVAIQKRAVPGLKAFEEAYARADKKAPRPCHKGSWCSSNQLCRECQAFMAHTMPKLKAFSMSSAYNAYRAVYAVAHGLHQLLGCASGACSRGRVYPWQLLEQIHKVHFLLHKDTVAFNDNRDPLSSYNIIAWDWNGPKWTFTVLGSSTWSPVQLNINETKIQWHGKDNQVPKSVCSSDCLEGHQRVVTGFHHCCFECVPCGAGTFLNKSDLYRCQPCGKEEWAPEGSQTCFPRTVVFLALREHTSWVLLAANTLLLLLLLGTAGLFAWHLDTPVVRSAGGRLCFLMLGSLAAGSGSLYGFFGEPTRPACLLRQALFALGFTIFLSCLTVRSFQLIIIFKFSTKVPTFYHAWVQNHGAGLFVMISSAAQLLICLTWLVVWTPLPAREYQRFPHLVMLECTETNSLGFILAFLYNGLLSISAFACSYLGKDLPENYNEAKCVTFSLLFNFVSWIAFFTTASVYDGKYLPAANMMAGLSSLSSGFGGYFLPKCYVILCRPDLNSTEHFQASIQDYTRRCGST
T1 sequence (Q923K1 21-858 L68N/S168G/A277V/R278H/S302A): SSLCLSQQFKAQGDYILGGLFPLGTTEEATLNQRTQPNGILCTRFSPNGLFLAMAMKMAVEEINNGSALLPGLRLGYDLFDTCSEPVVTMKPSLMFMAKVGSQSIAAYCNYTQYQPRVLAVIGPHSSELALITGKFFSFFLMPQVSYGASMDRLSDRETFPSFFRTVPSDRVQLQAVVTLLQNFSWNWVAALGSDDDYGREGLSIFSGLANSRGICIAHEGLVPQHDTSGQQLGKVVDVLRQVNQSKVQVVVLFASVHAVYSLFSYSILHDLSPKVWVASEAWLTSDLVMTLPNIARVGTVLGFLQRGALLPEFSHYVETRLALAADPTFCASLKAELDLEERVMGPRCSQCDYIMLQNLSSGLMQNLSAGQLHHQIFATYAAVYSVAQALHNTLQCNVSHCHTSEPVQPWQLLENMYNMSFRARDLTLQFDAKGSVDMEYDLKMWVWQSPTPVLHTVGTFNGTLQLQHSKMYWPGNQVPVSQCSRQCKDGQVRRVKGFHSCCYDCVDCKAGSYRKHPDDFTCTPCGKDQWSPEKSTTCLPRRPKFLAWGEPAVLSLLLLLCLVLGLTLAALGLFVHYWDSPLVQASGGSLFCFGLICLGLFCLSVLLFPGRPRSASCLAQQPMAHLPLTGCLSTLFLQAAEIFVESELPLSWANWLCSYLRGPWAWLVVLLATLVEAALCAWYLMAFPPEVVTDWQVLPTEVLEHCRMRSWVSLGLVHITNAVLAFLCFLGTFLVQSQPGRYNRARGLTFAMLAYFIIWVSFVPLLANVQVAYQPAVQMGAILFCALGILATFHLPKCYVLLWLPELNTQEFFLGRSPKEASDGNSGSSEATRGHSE
Assay: Calcium assay, mutated rTAS1R3 co-expressed with hTAS1R1
Experimental: HEK293T/17 cells (ATCC CRL-11268) were seeded into clear bottom black 96-well plates coated with poly-D-lysine at a density of 32500 cells/well in 100 μL of DMEM containing 4.5 g/L glucose and supplemented with penicillin/streptomycin, 2 mM GlutaMAX and 10 % dialyzed fetal bovine serum. The plates were incubated for 24 h at 37 °C and 7.3 % CO2 in a humidified atmosphere. After incubation, using Fugene® 4 K (0.46 μL/well, Promega, Illkirch, France), the cells were transiently transfected with pcDNA3-hTAS1R1-WT (60 ng/well) or TAS1R1 mutants, pcDNA4-rTAS1R3 (60 ng/well), pcDNA3-Gα15i2 (10 ng/well), and pGP-CMV-GCaMP6s (Addgene #40753; 10 ng/well) as a genetically encoded calcium indicator. Twenty-four hours after transfection, the HEK293T/17 cells were rinsed with 100 μL of C1 buffer (130 mM NaCl, 5 mM KCl, 10 mM HEPES, 2 mM CaCl2, and 5 mM sodium pyruvate, pH 7.4). For each molecule tested, a semi-logarithmic concentration range was created consisting of seven increasing concentrations and a negative control (zero dose) made of buffer C1. Binary mixtures with different molecules were also made to study potential synergy. In this case, the concentration range was tested in C1 buffer containing the other molecules to be tested. The concentration ranges varied depending on the molecule, its solubility, and its effectiveness in activating the receptor. All the solutions were made on the day of the test to prevent any oxidation of the compounds. If needed, the pH of each solution was adjusted by to pH 7.4 by adding NaOH. After 20 s of basal fluorescence calcium measurement, the cells were stimulated via automatic injection of a range of compounds in eight wells, and the signal emission was recorded for an additional 70 s, via a FlexStation 3® fluorometric microplate reader (Molecular Devices, San Jose, CA, USA). As a control, molecules were also tested on mock-transfected cells with the empty vector. The emitted fluorescence was measured at a wavelength of 510 nm after excitation at 488 nm. Each measurement was performed in duplicate on the same plate, and the experiments were carried out at least four times. Kinetic data were acquired via SoftMax Pro 5.4.6 software (Molecular Devices). For each well, the decrease in the raw fluorescence as the relative fluorescence changed was calculated as ΔF/F0. Replicates were averaged for the wells subjected to the same stimuli, the background signal was subtracted, and the fluorescence changes in mock-transfected cells were subtracted. The half-maximal effective concentration (EC50) and maximal signal amplitude (max ∆F/F0) were calculated via non-linear regression of the sigmoidal function four-parameter logistic equation [f(x) = min + (max − min)/(1 + (x/EC50)^nH)] via SigmaPlot 15.0 software (Grafiti LLC, Palo Alto, CA, USA). […] For a clearer understanding of the results, the amplitude values in certain dose-response curves were normalized to max ∆F/F0 = 1, to eliminate the differences in amplitude.
We also selected other residues surrounding the cavity that differed from species to species and were not directly involved in ligand binding but rather in dynamic phenomena resulting in signal transmission, namely, four residues located less deep in the binding cavity that we mutated to their human counterparts (Y281H, S282A, P67S, L72W) (Mut2) (Fig. S3). Finally, we targeted positions at the interface between the VFTs of TAS1R1 and TAS1R3. […] A double mutant (E221Q and R173L) (Mut3) was thus created. For each group, we constructed multisite mutants (penta-, quadruple-, or double-mutants) to assess their combined effects efficiently.

## N[C@@H](CCC(=O)N[C@@H](CS)C(=O)NCC(=O)O)C(=O)O [GSH, γ-L-glutamyl-L-cysteinyl-glycine]
  EC50: 9.01 ± 0.697 mM
Mut1
  effect of the added compound on the response to L-Glu: increased
  response to the agonist alone: reduced

## N[C@@H](CCC(=O)O)C(=O)O [L-Glu, L-glutamic acid, reference compound]
Mut1
  response to the agonist alone: responded

## CCCC(CCC)NC(=O)c1ccc2c(c1)OCO2 [S807, N-(heptan-4-yl)benzo[d][1,3]dioxole-5-carboxamide, reference compound]
  EC50: 0.00169 ± 0.0001 mM
Mut1
  response to the agonist alone: unaffected
